# In patent US6660263B2, “Oocydin and methods of use for protection of plants from Oomyocyte pathogens” (HMV Corporation, priority 2000, dated 2003):
# Where a SMILES comes first, the peptide text is derived from it. Bridges are numbered along the chain shown (N, C = ends). [ ]: non-standard residue; d: D form. The star is where a group is joined. Tetradecanoyl(3R-OH) = CCCCCCCCCCC[C@@H](O)CC(=O)*; Asp(3S-OH) = N[C@H](C(=O)O)[C@H](O)C(=O)O; Thr(4-Cl) = N[C@H](C(=O)O)[C@H](O)CCl; aThr = C[C@H](O)[C@H](N)C(=O)O; dDab = NCC[C@@H](N)C(=O)O; Dab = NCC[C@H](N)C(=O)O; Dhb = C/C=C(\N)C(=O)O
# Legend:
# Phytophthora parasitica = assay: MIC in PD broth, 24-well plate
# Phytophthora cinnamomi = assay: MIC in PD broth, 24-well plate
# Pythium ultimum = assay: MIC in PD broth, 24-well plate; format: cell-based
# Phytophthora citrophora = assay: MIC in PD broth, 24-well plate; format: cell-based
# Phytophthora spp. = assay: MIC in PD broth, 24-well plate; format: cell-based; settings: the most sensitive Oomycetes
# Geotrichum candidum = format: cell-based
# Sclerotinia sclerotiorum = format: cell-based
# Rhizoctonia solani = format: cell-based
# Verticillum dahliae = format: cell-based
# Alternaria tomato = format: cell-based
# Aspergillus fumigatus = format: cell-based
# [1] = test system: MCF-7 (breast cancer cell line); assay: Neutral red cytotoxicity assay; format: cell-based, human; settings: 3 days of exposure, preliminary studies
# Procedure: (§1) Oocydin A was tested also against human cancer cell lines BT-20, MCF 7(American Type Culture Collection, Bethesda, Md., USA) and compared with activity against a normal human mammary human cell line (cc2551 HMEC from Clonetics, San Diego, Calif., USA). These cells were exposed to serial dilutions of oocydin A. After 3 days of exposure, the cells were stained with neutral red and the absorbance measured at 540 nm. For non-adherent cells a modification of the staining protocol of Berent, S. L. et al., (1986) Nucleic Acid Res 14, 8997-9015 was used. The results were recorded as IC50 values.
# [2] = test system: normal human mammary cell line (cc2551 HMEC); assay: Neutral red cytotoxicity assay; format: cell-based; settings: 3 days of exposure, preliminary studies
# Procedure: as §1
# P. ultimum = assay: Plate bioassay of fractions on PDA; format: cell-based, Pythium ultimum; settings: contents of the single HPLC peak (retention time 19.7 min) against P. ultimum
# Procedure: Bioassays. A simple plate bioassay test was used to detect bioactivity of various fractions in the purification of oocydin. Aliquots (10-20 μl) of sample were placed on a PDA plate, dried by placement under a hood having positive airflow, and then inoculated with 0.5×0.5 cm plugs of agar containing P. ultimum. The agar plugs were placed in each of the quadrants of the plate and then incubated for 36-48 hr at 23 C. Antioomycetous activity was apparent as a zone of growth inhibition.
structure (smiles),measurement,setting,value
"COCC(=O)N(c1c(C)cccc1C)C(C)C(=O)OC (racemic) [Metalaxyl, N-(2,6-dimethylphenyl)-N-(methoxyacetyl)-DL-alanine methyl ester, reference compound]",MIC,"Phytophthora parasitica; Phytophthora nicotianae, read-out: Metalaxyl MIC",0.06 µg/mL
same,MIC,"Phytophthora cinnamomi; Phytophthora cinnamomi, read-out: Metalaxyl MIC",0.06 µg/mL
CC(=O)OC1CC(=O)O[C@H]2C[C@H](CC/C(Cl)=C\C/C=C\1C)O[C@H]2[C@@H](O)/C=C(\C)CC(=O)O (stereo partly shown) [oocydin A],Oocydin MIC Test 1,"Pythium ultimum; Test 1, no visible growth after 48 or 72 hr at 23° C.",0.11 µg/mL
same,Oocydin MIC Test 2,"Pythium ultimum; Test 2, no visible growth after 48 or 72 hr at 23° C.",0.39 µg/mL
same,Minimum inhibitory concentration (MIC),Phytophthora citrophora; P. citrophora,circa 0.03 μg ml^−1
same,Oocydin MIC Test 1,"Phytophthora citrophora; Phytophthora citrophora, Test 1",0.03 µg/mL
same,Oocydin MIC Test 2,"Phytophthora citrophora; Phytophthora citrophora, Test 2",0.02 µg/mL
same,MIC,Phytophthora spp.,approximately 0.03 μg ml^−1
same,activity on PDA plates,Geotrichum candidum,inactive
same,activity on PDA plates,Sclerotinia sclerotiorum,only slight inhibition of growth
same,activity on PDA plates,Rhizoctonia solani,only slight inhibition of growth
same,activity in plate tests,Verticillum dahliae,no activity
same,activity in plate tests,Alternaria tomato,no activity
same,effect on growth,Aspergillus fumigatus,no effect
same,IC50,[1],0.42 µg/mL
same,IC50,[2],0.6 µg/mL
same,bioassay activity,P. ultimum,active
same,effect on growth,Candida albicans,no effect
same,effect on growth,Cryptococcus neoformans,no effect
same,effect on growth,Candida parapsilosis,no effect
same,effect on growth,Histoplasma capsulatum,no effect
same,Minimum inhibitory concentration (MIC),Phytophthora parasitica; Phytophthora parasitica,circa 0.03 μg ml^−1
same,Oocydin MIC Test 1,"Phytophthora parasitica; Phytophthora parasitica, Test 1",0.03 µg/mL
same,Oocydin MIC Test 2,"Phytophthora parasitica; Phytophthora parasitica, Test 2",0.05 µg/mL
same,Minimum inhibitory concentration (MIC),Phytophthora cinnamomi; P. cinnamomi,circa 0.03 μg ml^−1
same,Oocydin MIC Test 1,"Phytophthora cinnamomi; Phytophthora cinnamomi, Test 1",0.03 µg/mL
same,Oocydin MIC Test 2,"Phytophthora cinnamomi; Phytophthora cinnamomi, Test 2",0.02 µg/mL
"C/C=C1\NC(=O)[C@H]([C@H](C)O)NC(=O)[C@H](CCN)NC(=O)[C@H](CCCCN)NC(=O)[C@H](CC(=O)O)NC(=O)[C@@H](CCN)NC(=O)[C@@H](NC(=O)C[C@H](O)CCCCCCCCCCC)COC(=O)[C@H]([C@H](O)CCl)NC(=O)[C@H]([C@H](O)C(=O)O)NC1=O [pseudomycin B, reference compound] ({Tetradecanoyl(3R-OH)}-S[dDab]DK[Dab][aThr][Dhb][Asp(3S-OH)][Thr(4-Cl)]; ester 1-C; N-terminus assumed)",MIC,Candida albicans,< 1.0 µg/mL
same,MIC,Cryptococcus neoformans,< 1.0 µg/mL
same,MIC,Candida parapsilosis,< 1.0 µg/mL
same,MIC,Histoplasma capsulatum,< 1.0 µg/mL
